The record followed here is ChEMBL document CHEMBL2157937, “Discovery and optimization of C-2 methyl imidazopyrrolopyridines as potent and orally bioavailable JAK1 inhibitors with selectivity over JAK2” (J Med Chem, 2012).

Series [1] is described as follows: Clearance in rat at 2 mg/kg, po. Conditions: in vivo. The arrangement: dose 2 mg/kg, route oral. Type of series: ADME, organism-based.
Series [2] is described as follows: AUC in rat at 2 mg/kg, po. Type of series: ADME, organism-based. The arrangement: dose 2 mg/kg, route oral. Conditions: plasma.
The nature of series [3]: in vivo. To be noted: rat, po, 2 mg/kg.
A short description of series [4]: in vivo. Conditions: rat, po, 2 mg/kg. This is another data set of the same source.
Series [5] is described as follows: physchem. To be noted: octanol/PBS buffer, pH 7.2.
A short description of series [6]: in vitro. Conditions: human, hepatocytes.
For series [7], the species on record is Rattus norvegicus. To be noted: in vivo, po, 2 mg/kg.
Series [8] is described as follows: in vivo. To be noted: Sprague-Dawley, rat, iv, 0.4 mg/kg.
Series [9] can be described thus: in vivo. Conditions: Sprague-Dawley, rat, plasma, po, 2 mg/kg.
Series [10] in a line: in vivo. Conditions: Sprague-Dawley, rat, po, 0.4 mg/kg.
A short description of series [11]: physchem. To be noted: buffer, pH 7.4.
A short description of series [12]: in vitro. Conditions: Sprague-Dawley, rat, hepatocytes.
Series [13] is described as follows: in vivo. Conditions: Sprague-Dawley, rat, po, 2 mg/kg.
A short description of series [14]: physchem. Conditions: buffer, pH 2.

≈ marks a conversion by molar mass, not a printed value.

Broadly, the CL/F is the apparent clearance, not corrected for the fraction that reaches the circulation. One may read the AUC as concentration integrated over time. Read a high AUC as high exposure. The term Cmax denotes the maximum level reached in the sampled fluid or tissue. A word on the bioavailability: it is dose-corrected exposure relative to a reference, in per cent. Low readings indicate poor availability, high ones good availability. Regarding `C[C@@H]1CCN(C(=O)CC#N)C[C@@H]1N(C)c1ncnc2[nH]ccc12` [TOFACITINIB], the CL/F in [1] worked out at 43 mL/min/kg. In addition, the AUC in [2] came out at 2.1 µM·h. In series [3], this compound showed a Cmax of 1700 nM. The compound further had a bioavailability in series [4] of 87%.
One may read the logD as lipophilicity at a set pH, counting ionised and neutral species. By half-life is commonly meant the time in which the quantity being followed falls by half. Take `Cc1nc2cnc3[nH]ccc3c2n1[C@H]1CC[C@@H](O)CC1`: the logD at 1 h, 10000 µM in [5] came to 1.4. In addition, in series [6], the half-life at 1 µM is > 8 h.
Consider `CC(=O)N[C@H]1CC[C@H](n2c(C)nc3cnc4[nH]ccc4c32)CC1`, for which the logD at 1 h, 10000 µM in [5] amounted to 1.1.
The same measure, in the same setting: next, `Cc1nc2cnc3[nH]ccc3c2n1[C@@H]1CCNC[C@@H]1F` (relative stereo): 0.7.
As to `Cc1nc2cnc3[nH]ccc3c2n1[C@H]1CC[C@H](NS(C)(=O)=O)CC1`, the logD at 1 h, 10000 µM in [5] is 1.2. The half-life at 1 µM in series [6] is > 8 h.
Usually clearance stands for the volume of plasma or blood freed of the substance per unit of time. A lower clearance goes with inefficient removal. By solubility (thermodynamic) is commonly meant the concentration in solution at equilibrium with solid. As for `Cc1nc2cnc3[nH]ccc3c2n1[C@@H]1CCNC[C@H]1F` (relative stereo), in series [7], the F stood at 172%. The compound further came in with a clearance in [8] of 40 mL/min/kg. This compound returned an area under the curve (AUC) in [9] of 5.3 µM·h. The highest level in [10] (Cmax) was 4500 nM. In addition, the logD at 1 h, 10000 µM in series [5] is 1.2. The half-life at 1 µM is 1.8 h in series [6] and 1.6 h in [12]. Also, in series [11], the solubility (thermodynamic) at 24 h was > 1500 µM.
Consider `Cc1nc2cnc3[nH]ccc3c2n1[C@H]1CCCNC1`, for which the logD at 1 h, 10000 µM in [5] was found to be 0.6. Also, the half-life at 1 µM in [6] is > 8 h.
For the compound `Cc1nc2cnc3[nH]ccc3c2n1[C@H]1CC[C@H](NCCC#N)CC1`, the clearance in [8] worked out at 80 mL/min/kg. The AUC in [9] worked out at 0.18 µM·h. The Cmax in series [10] came to 150 nM. Further, in series [13], the bioavailability was 13%. Besides, the logD at 1 h, 10000 µM in [5] is 0.9. Besides, the half-life at 1 µM in [6] and in series [12] was > 8 h in each case. Besides, the figures for the thermodynamic solubility at 24 h in series [11] and in [14] were > 1500 µM and > 5000 µM, respectively.
Compound `Cc1nc2cnc3[nH]ccc3c2n1C1CCNCC1` returned a clearance in series [8] of 43 mL/min/kg. The compound also registered an AUC in series [9] of 0.12 µM·h. In addition, the Cmax in [10] was 60 nM. In addition, in series [13], the bioavailability was 4%. The same compound came in with a logD at 1 h, 10000 µM in [5] of 0.1. Besides, the half-life at 1 µM in [6] and in [12] was > 8 h each time. For the same compound, the thermodynamic solubility at 24 h in [11] is > 1500 µM; in [14] it was > 5000 µM.
On to `Cc1nc2cnc3[nH]ccc3c2n1[C@H]1CC[C@H](O)CC1`, for which the logD at 1 h, 10000 µM in [5] was 1.4. In [6], the half-life at 1 µM was > 8 h.
In turn, `Cc1nc2cnc3[nH]ccc3c2n1C1CCN(CCC#N)CC1` yielded a logD at 1 h, 10000 µM in [5] of 1.3. Besides, the half-life at 1 µM in series [6] was > 8 h.
Compound `Cc1nc2cnc3[nH]ccc3c2n1[C@@H]1CCCC[C@H]1O` (relative stereo) returned a logD at 1 h, 10000 µM in series [5] of 1.6. Further, in series [6], the half-life at 1 µM is > 8 h.
The compound `COC(=O)N[C@H]1CC[C@H](n2c(C)nc3cnc4[nH]ccc4c32)CC1` returned a clearance in series [8] of 40 mL/min/kg. Further, the AUC in [9] was 1.4 µM·h. The compound further yielded a Cmax in [10] of 550 nM. In series [13], the bioavailability came to 54%. The same compound came in with a logD at 1 h, 10000 µM in [5] of 2. For the same compound, the half-life at 1 µM in [6] was 3.9 h; in [12], 3.5 h. Besides, the thermodynamic solubility at 24 h was found to be 40 µM (≈ 13.1 µg/mL) in [11] and 2300 µM (≈ 753 µg/mL) in [14].
The compound `Cc1nc2cnc3[nH]ccc3c2n1[C@H]1CCCOC1` displayed a logD at 1 h, 10000 µM in series [5] of 1.8. For the same compound, in series [6], the half-life at 1 µM is 6.3 h.
